What all share (type): cell-based
Experiment [1] addresses T1, ΔF508-CFTR (Homo sapiens, UniProt P13569, DEL508-508).
T1 construct: host or cells: CFBE41o-, doxycycline-inducible
As to the kind of experiment: CFTR cell surface levels using HRP-tagged ΔF508-CFTR expressing CFBE cells, in the presence of a co-corrector. The conditions noted are these: HRP-tagged ΔF508-CFTR CFBE cells, in the presence of 3 μM co-corrector; for EC50: read-out: EC50. The method, boiled down: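 Chemiluminescent read-out of surface HRP (15 min, dark) after PBS washes. Activity is normalized as 100×(sample−DMSO)/(3 μM co-corrector alone−DMSO).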

Experiment [2] addresses T1, ΔF508-CFTR. As to the kind of experiment: CFTR cell surface levels using HRP-tagged ΔF508-CFTR expressing CFBE cells, intrinsic corrector capacity. Details: % Activation: concentration or dose not given beside the values. The conditions noted are these: HRP-tagged ΔF508-CFTR expressing CFBE41o- cells, compound alone (intrinsic corrector capacity), 20 hours at 33° C.; for EC50: read-out: EC50. In a few lines:
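Surface ΔF508-CFTR was measured as HRP chemiluminescence from an extracellular-loop-4 tag, expressed as percent activity between DMSO and a […] corrector control.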

In the next experiment the target is T2, CFTR ΔF508 (Homo sapiens, UniProt P13569, DEL508-508).
T2 construct: bronchial epithelial cells isolated from CF patients homozygous for the CFTR ΔF508 mutation; McGill University; Asterand; University of North Carolina hAEC-CF; host or cells: primary human bronchial epithelial cells from CF patients homozygous for ΔF508, differentiated at air-liquid interface
As to the kind of experiment: Chronic TECC assay, primary bronchial epithelial cells of CF patients homozygous for CFTR ΔF508 (corrector, co-corrector and potentiator). The conditions noted are these: chronic TECC; for % Activity at 1 μM (AUC**) / % Activity at 1 μM (Ieq*): test compound at 1 μM. As to the method: Primary Bronchial Epithelial Cells Protocol
The TECC (Tranepithelial Clamp Circuit, EP-design) assay measures the functionality of the cystic fibrosis Transmembrane Conductance regulator (CFTR) by measuring the short circuit current (Isc) generated over the basolateral and apical membrane of lung epithelial cells. In TECC the transepithelial potential PD and transepithelial resistance (Rt) are measured in an open circuit and transformed to Ieq using Ohm's law. 24 Wells can be measured simultaneously allowing a higher throughput compared to Ussing chambers.
For this purpose, bronchial epithelial cells isolated from CF patients homozygous for the CFTR ΔF508 mutation (hAEC-CF, Epithelix, Geneva, Switzerland; McGill University, Montreal, Qc; Asterand, Detroit, Mich.; University of North Carolina, Chapel Hill, N.C.) are plated on type IV collagen-coated Transwell® supports (Costar).
For electrophysiological recording of the “chronic” experiments, the human airway epithelia are mounted in the TECC heating plate for electrophysiological measurement and kept at 37° C. The epithelia are bathed in a NaCl-Ringer solution (120 mM NaCl, 25 mM NaHCO3, 1.2 mM CaCl2, 1.2 mM MgCl2, 0.8 mM KH2PO4, 0.8 mM K2HPO4, pH 7.4, 5 mM glucose) on both the basolateral and apical sides. Test compounds (corrector, co-corrector, 4-[(2R,4R)-4-({[1-(2,2-difluoro-1,3-benzodioxol-5-yl)cyclopropyl]carbonyl}amino)-7-(difluoromethoxy)-3,4-dihydro-2H-chromen-2-yl]benzoic acid, and potentiator, N-(3-carbamoyl-5,5,7,7-tetramethyl-4,7-dihydro-5H-thieno[2,3-c]pyran-2-yl)-1H-pyrazole-5-carboxamide), are re-added to the recording solution prior to measurement. […] Apical amiloride is used to inhibit the endogenous ENaC currents while forskolin is applied on both apical and basolateral side to stimulate CFTR. Measurements are done during a 20 minute timeframe with recordings every 2 minutes. The increase in Ieq is used as a measure for the increased CFTR activity, EC50 values can be generated by measuring impact of different concentrations of compound on Ieq on primary cells, for this purpose each transwell is treated with a different compound concentration. […] Raw data were normalized to percentage activity values using the equation: 100×(Sample−Negative control)/(Positive control−Negative Control).

Setting [3] is: AUC = full area under the curve upon forskolin stimulation, read-out: EC50 (nM) (AUC**).
Setting [4] is: AUC = full area under the curve upon forskolin stimulation.
The mark [5] stands for this setting: Ieq = calculations based on the maximum current, read-out: EC50 (nM) (Ieq*).
Where [6] appears, read: Ieq = calculations based on the maximum current.

Like-named read-outs stand apart in the source and are kept apart here.

T2 sequence (P13569 with tags, fused parts or gaps DEL508-508): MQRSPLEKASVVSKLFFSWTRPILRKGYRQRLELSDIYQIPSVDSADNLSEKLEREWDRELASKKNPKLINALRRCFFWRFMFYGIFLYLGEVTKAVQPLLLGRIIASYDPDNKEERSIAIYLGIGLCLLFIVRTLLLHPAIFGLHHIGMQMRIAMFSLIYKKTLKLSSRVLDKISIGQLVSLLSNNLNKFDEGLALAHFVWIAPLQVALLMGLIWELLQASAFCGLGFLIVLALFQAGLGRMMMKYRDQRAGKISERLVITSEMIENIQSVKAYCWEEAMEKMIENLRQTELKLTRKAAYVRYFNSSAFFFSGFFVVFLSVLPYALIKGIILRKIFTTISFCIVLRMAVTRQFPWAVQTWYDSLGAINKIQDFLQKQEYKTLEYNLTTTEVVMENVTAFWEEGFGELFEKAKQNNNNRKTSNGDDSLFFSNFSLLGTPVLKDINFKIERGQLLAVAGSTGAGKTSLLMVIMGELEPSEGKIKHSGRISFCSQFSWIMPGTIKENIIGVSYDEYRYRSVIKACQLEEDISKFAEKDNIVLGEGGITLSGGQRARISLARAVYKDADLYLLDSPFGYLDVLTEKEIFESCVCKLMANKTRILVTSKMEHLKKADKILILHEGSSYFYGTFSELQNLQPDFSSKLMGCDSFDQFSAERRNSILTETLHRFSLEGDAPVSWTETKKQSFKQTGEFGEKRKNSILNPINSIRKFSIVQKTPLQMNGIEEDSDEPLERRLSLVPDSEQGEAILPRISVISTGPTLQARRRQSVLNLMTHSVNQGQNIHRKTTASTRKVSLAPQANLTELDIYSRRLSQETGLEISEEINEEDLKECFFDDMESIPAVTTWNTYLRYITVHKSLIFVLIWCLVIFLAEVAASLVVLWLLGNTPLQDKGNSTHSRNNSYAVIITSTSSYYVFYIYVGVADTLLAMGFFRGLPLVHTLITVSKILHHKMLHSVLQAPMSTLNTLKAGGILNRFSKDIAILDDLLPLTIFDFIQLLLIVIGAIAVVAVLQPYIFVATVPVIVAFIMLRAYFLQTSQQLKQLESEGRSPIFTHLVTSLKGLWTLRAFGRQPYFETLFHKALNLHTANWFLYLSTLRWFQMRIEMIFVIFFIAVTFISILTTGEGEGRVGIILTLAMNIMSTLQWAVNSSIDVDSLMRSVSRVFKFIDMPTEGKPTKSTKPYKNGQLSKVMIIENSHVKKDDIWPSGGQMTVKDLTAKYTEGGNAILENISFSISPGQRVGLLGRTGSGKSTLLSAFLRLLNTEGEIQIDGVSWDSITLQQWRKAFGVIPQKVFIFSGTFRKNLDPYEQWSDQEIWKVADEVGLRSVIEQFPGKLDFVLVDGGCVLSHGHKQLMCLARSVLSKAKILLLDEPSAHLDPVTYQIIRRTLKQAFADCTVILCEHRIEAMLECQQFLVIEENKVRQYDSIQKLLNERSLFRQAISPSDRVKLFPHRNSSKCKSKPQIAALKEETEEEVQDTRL
T1 sequence (P13569 with tags, fused parts or gaps DEL508-508): as above

As to `CC(C)c1nn(-c2ccnc(N3CCOCC3)c2)c2nc(C(=O)NS(C)(=O)=O)cc(-c3ccc(N4CCOCC4)cc3)c12` [Compound 136, N-(methanesulfonyl)-4-[4-(morpholin-4-yl)phenyl]-1-[2-(morpholin-4-yl)pyridin-4-yl]-3-(propan-2-yl)-1H-pyrazolo[3,4-b]pyridine-6-carboxamide], the “% Activation” value at ΔF508-CFTR [1] was 428.1%; on ΔF508-CFTR [2] it was 262.38%. The EC50 (in general, the concentration that produces a half-maximal response) at ΔF508-CFTR [1] was 72.3 nM; on ΔF508-CFTR [2] it was 155 nM; at CFTR ΔF508 (setting [3]) it was 23.5 nM. Moreover, at CFTR ΔF508 (setting [4]), the “% Activity at 1 μM (AUC**)” value stood at 233.2%.
For `COCC1CCN(c2cc(C(=O)NS(C)(=O)=O)nc3c2c(C(C)C)nn3-c2cccc(N(C)C)c2)CC1` [Compound 144, 1-[3-(dimethylamino)phenyl]-N-(methanesulfonyl)-4-[4-(methoxymethyl)piperidin-1-yl]-3-(propan-2-yl)-1H-pyrazolo[3,4-b]pyridine-6-carboxamide], the “% Activation” value on ΔF508-CFTR [1] came out at 674.7%; on ΔF508-CFTR [2] it was 531.6%. Besides, the EC50 was 243 nM on ΔF508-CFTR [1], 417 nM at ΔF508-CFTR [2] and 12 nM on CFTR ΔF508 (setting [5]). The “% Activity at 1 μM (Ieq*)” value at CFTR ΔF508 (setting [6]) is recorded as 350%.
For the compound `COCCS(=O)(=O)NC(=O)c1cc(N2CCC(OC)CC2)c2c(C3CCC3)nn(-c3ccccc3)c2n1` [Compound 146, 3-cyclobutyl-N-(2-methoxyethanesulfonyl)-4-(4-methoxypiperidin-1-yl)-1-phenyl-1H-pyrazolo[3,4-b]pyridine-6-carboxamide], the “% Activation” value worked out at 357.55% at ΔF508-CFTR [1] and 201.23% at ΔF508-CFTR [2]. For the same compound, the EC50 at ΔF508-CFTR [1] is 96.9 nM; on ΔF508-CFTR [2] it was 356 nM; at CFTR ΔF508 (setting [5]) it was 30 nM. The “% Activity at 1 μM (Ieq*)” value at CFTR ΔF508 (setting [6]) is 310%.
With `COC1CCN(c2cc(C(=O)NS(C)(=O)=O)nc3c2c(C(C)C)nn3C2CCCCC2)CC1` [Compound 150, 1-cyclohexyl-N-(methanesulfonyl)-4-(4-methoxypiperidin-1-yl)-3-(propan-2-yl)-1H-pyrazolo[3,4-b]pyridine-6-carboxamide], the “% Activation” value was determined as 380.65% at ΔF508-CFTR [1] and 220.98% at ΔF508-CFTR [2]. Moreover, the EC50 at ΔF508-CFTR [1] was 318 nM; at ΔF508-CFTR [2], 576 nM; at CFTR ΔF508 (setting [5]), 100 nM.
In the case of `CCCOC1CCN(c2cc(C(=O)NS(C)(=O)=O)nc3c2c(C2CCC2)nn3-c2ccccc2)CC1` [Compound 152, 3-cyclobutyl-N-(methanesulfonyl)-1-phenyl-4-(4-propoxypiperidin-1-yl)-1H-pyrazolo[3,4-b]pyridine-6-carboxamide], the “% Activation” value at ΔF508-CFTR [1] came out at 409.9%; on ΔF508-CFTR [2], 242.35%. In addition, the EC50 on ΔF508-CFTR [1] worked out at 108 nM; on ΔF508-CFTR [2] it was 357 nM; at CFTR ΔF508 (setting [3]) it was 16 nM. Besides, the “% Activity at 1 μM (AUC**)” value at CFTR ΔF508 (setting [4]) is listed as 482.77%.
As to `COC1CCN(c2cc(C(=O)NS(C)(=O)=O)nc3c2c(C(C)C)nn3-c2cccc(N(C)C)c2)CC1` [Compound 155, 1-[3-(dimethylamino)phenyl]-N-(methanesulfonyl)-4-(4-methoxypiperidin-1-yl)-3-(propan-2-yl)-1H-pyrazolo[3,4-b]pyridine-6-carboxamide], the figures for the “% Activation” value at ΔF508-CFTR [1] and on ΔF508-CFTR [2] were 555.45% and 439.5%, respectively. For the same compound, the EC50 came out at 230 nM on ΔF508-CFTR [1], 454 nM at ΔF508-CFTR [2] and 4 nM on CFTR ΔF508 (setting [3]). Also, the “% Activity at 1 μM (AUC**)” value on CFTR ΔF508 (setting [4]) was found to be 200%.
For `CC(C)c1nn(-c2ccnc(N3CCCC3)c2)c2nc(C(=O)NS(C)(=O)=O)cc(-c3ccc(N4CCC(C#N)CC4)nc3)c12` [Compound 158, 4-[6-(4-cyanopiperidin-1-yl)pyridin-3-yl]-N-(methanesulfonyl)-3-(propan-2-yl)-1-[2-(pyrrolidin-1-yl)pyridin-4-yl]-1H-pyrazolo[3,4-b]pyridine-6-carboxamide], the “% Activation” value at ΔF508-CFTR [1] is given as 512.45%; on ΔF508-CFTR [2], 359.1%. For the same compound, the EC50 stood at 267 nM at ΔF508-CFTR [1] and 622 nM at ΔF508-CFTR [2]. Moreover, on CFTR ΔF508 (setting [4]), the “% Activity at 1 μM (AUC**)” value came out at 370.9%.
Take `CC(C)c1nn(-c2cccc(N(C)C)c2)c2nc(C(=O)NS(C)(=O)=O)cc(N3CCC(C#N)CC3)c12` [Compound 160, 4-(4-cyanopiperidin-1-yl)-1-[3-(dimethylamino)phenyl]-N-(methanesulfonyl)-3-(propan-2-yl)-1H-pyrazolo[3,4-b]pyridine-6-carboxamide]: the “% Activation” value on ΔF508-CFTR [1] is on record as 490.4%; at ΔF508-CFTR [2], 285.57%. Besides, the half-maximal effective concentration (EC50) at ΔF508-CFTR [1] was 202 nM; at ΔF508-CFTR [2], 309 nM; at CFTR ΔF508 (setting [3]) it was 160 nM. The “% Activity at 1 μM (AUC**)” value on CFTR ΔF508 (setting [4]) is on record as 190%.
As for `COC1CCN(c2cc(C(=O)NS(C)(=O)=O)nc3c2c(C(C)C)nn3-c2ccc(F)cc2)CC1` [Compound 167, 1-(4-fluorophenyl)-N-(methanesulfonyl)-4-(4-methoxypiperidin-1-yl)-3-(propan-2-yl)-1H-pyrazolo[3,4-b]pyridine-6-carboxamide], the “% Activation” value worked out at 429.4% on ΔF508-CFTR [1] and 260.6% at ΔF508-CFTR [2]. Moreover, the EC50 on ΔF508-CFTR [1] was 81.8 nM; at ΔF508-CFTR [2], 313 nM; at CFTR ΔF508 (setting [3]), 32 nM. On CFTR ΔF508 (setting [4]), the “% Activity at 1 μM (AUC**)” value turned out to be 260%.
Turning to `COCC1CCN(c2cc(C(=O)NS(C)(=O)=O)nc3c2c(C(C)C)nn3-c2ccc(F)cc2)CC1` [Compound 168, 1-(4-fluorophenyl)-N-(methanesulfonyl)-4-[4-(methoxymethyl)piperidin-1-yl]-3-(propan-2-yl)-1H-pyrazolo[3,4-b]pyridine-6-carboxamide], the “% Activation” value on ΔF508-CFTR [1] was determined as 581.55%; at ΔF508-CFTR [2] it was 399.2%. The results for the EC50 on ΔF508-CFTR [1], on ΔF508-CFTR [2] and on CFTR ΔF508 (setting [3]) were 410 nM, 338 nM and 38.2 nM, respectively. For the same compound, the “% Activity at 1 μM (AUC**)” value on CFTR ΔF508 (setting [4]) turned out to be 282.45%.
On to `CC(C)c1nn(-c2ccnc(N3CCCC3)c2)c2nc(C(=O)NS(C)(=O)=O)cc(-c3ccc(N4CCC(C#N)CC4)cc3)c12` [Compound 169, 4-[4-(4-cyanopiperidin-1-yl)phenyl]-N-(methanesulfonyl)-3-(propan-2-yl)-1-[2-(pyrrolidin-1-yl)pyridin-4-yl]-1H-pyrazolo[3,4-b]pyridine-6-carboxamide], for which the “% Activation” value was found to be 519.3% on ΔF508-CFTR [1] and 344.25% at ΔF508-CFTR [2]. In addition, the figures for the EC50 at ΔF508-CFTR [1], at ΔF508-CFTR [2] and on CFTR ΔF508 (setting [3]) were 284 nM, 426 nM and 2.1 nM, respectively. In addition, the “% Activity at 1 μM (AUC**)” value at CFTR ΔF508 (setting [4]) is 210%.
For `CC(C)c1nn(-c2ccc(F)cc2)c2nc(C(=O)NS(C)(=O)=O)cc(N3CCC4(CCO4)CC3)c12` [Compound 177, 1-(4-fluorophenyl)-N-(methanesulfonyl)-4-(1-oxa-7-azaspiro[3.5]nonan-7-yl)-3-(propan-2-yl)-1H-pyrazolo[3,4-b]pyridine-6-carboxamide], the “% Activation” value is given as 263.9% at ΔF508-CFTR [1] and 99.405% at ΔF508-CFTR [2]. In addition, the values for the EC50 on ΔF508-CFTR [1], on ΔF508-CFTR [2] and at CFTR ΔF508 (setting [3]) were 385 nM, 830 nM and greater than 100 nM, respectively. In addition, the “% Activity at 1 μM (AUC**)” value at CFTR ΔF508 (setting [4]) is given as 419.90%.
Consider `COCC1CCN(c2cc(C(=O)NS(C)(=O)=O)nc3c2c(C2CCC2)nn3-c2ccccc2)CC1` [Compound 185, 3-cyclobutyl-N-(methanesulfonyl)-4-[4-(methoxymethyl)piperidin-1-yl]-1-phenyl-1H-pyrazolo[3,4-b]pyridine-6-carboxamide], for which the “% Activation” value on ΔF508-CFTR [1] is 546.7%; at ΔF508-CFTR [2], 331.6%. In addition, the EC50 on ΔF508-CFTR [1] came out at 145 nM; at ΔF508-CFTR [2] it was 241 nM; on CFTR ΔF508 (setting [3]) it was 45.4 nM.
